In patent US20260166017A1, “SARM1 INHIBITORS FOR USE IN THERAPY AND COSMETICS” (priority 2022, published 2026):
Entries after “also recorded” stand apart in the source; their conditions may differ.

How the values were obtained:
Rat oligodendrocytes = test: Cell death / SOX10 positive cell survival in cultured rat oligodendrocytes; format: cell-based; conditions: 100 μM vacor for 72 hours vs DMSO
Procedure: Sprague-Dawley neonatal (sp7) rat pups were decapitated following lethal overdose with pentobarbital. The brains were dissected and submerged into Hibernate-A low fluorescence media (Transnetyx Tissue, #HALF). The tissue was cut into 1-mm^3 pieces, washed in HBSS^−/− (Gibco, #11039047), then spun down at 100 g for 1 min at room temperature. To digest the tissue, the tissue was incubated in 34 U/mL papain (Worthington, #LS003127) and 40 μg/mL DNase I (Sigma, #D5025) in HALF, and incubated on an orbital shaker (55 rpm) for 40 min at 37° C. […] To collect the A2B5+ fraction, the MACS MS column (Miltenyi, #130-042-201) was removed from the magnetic stand (Miltenyi, #130-042-102) and cells were flushed from the column with 1 ml of prewarmed OPC medium (DMEM F/12 containing N-Acetyl cysteine (60 μg/ml, Sigma, #A9165), human recombinant insulin (10 ug/ml), sodium pyruvate (1 mM, Thermo Fisher, #11360-070), apo-transferrin (50 μg/ml, Sigma, #T2036), putrescine (16.1 μg/ml, Sigma, #P7505), sodium selenite (40 ng/ml, Sigma, #S5261), progesterone (60 ng/ml, Sigma, #P0130), bovine serum albumin (330 μg/ml, Sigma, #A4919). Cells were counted, then seeded at a density of 20,000 cells/cm^2 on poly-D-lysine (5 μg/ml PDL, Sigma #P6407) coated plates. […]

HEK293 cells = test: Intracellular NAD+ in HEK293 cells (NAD-glo assay); format: cell-based, Human; conditions: 100 μM vacor, 72 hours
Procedure: Schwann and HEK 293T cells were treated with 100 μM vacor, 250 μM 3AP, or vehicle controls, and collected in media at Oh and 72 h after treatment. Protein was extracted using Pierce™ IP Lysis Buffer supplemented with cOmplete™ Mini EDTA-free Protease Inhibitor Cocktail, and a BCA assay carried out to determine protein concentration. All samples were diluted to 0.5 μg/μL. The NAD-glo assay was performed according to manufacturer's instruction of the NAD^+/NADH-Glo™ assay by Promega (G9071). In short, 25 μL of sample were incubated with 12.5 μL 0.4M HCl at 60° C. for 15 min, before 12.5 μL 0.5M Tris base were added. 10 μL NAD^+ standards or sample were then mixed with 10 μL NAD-glo master mix (1 ml luciferin detection reagent, 5 μl reductase, 5 μl reductase substrate, 5 μl NAD^+ cycling enzyme, 25 μl NAD^+ cycling substrate) and incubated at RT for 40 min. Luminescence was read using a GloMax® Explorer microplate reader and NAD^+ concentrations determined relative to a NAD^+ standard curve.

[1] = LeWitt, 1980; Loreto et al., 2021; cited from earlier work
human primary myoblasts = test: Cell death assay in human primary myoblasts (propidium iodide); format: cell-based; conditions: high dose vacor (100 μM), 24 h vs DMSO
Procedure: Human primary myoblasts and human dermal skin fibroblasts were cultured following previously described protocols (Kisiel and Klar 2019; Rozwadowska et al. 2022). Drug treatment was started when cells reached the desired confluency. To visualise cell death, 1 μg/ml propidium iodide (PI) (Thermo Fisher Scientific) was added to the media at the same time of drug addition (Loreto et al. 2021). Phase contrast and fluorescence microscopy images were acquired on a DMi8 upright fluorescence microscope (Leica microsystems) coupled to a monochrome digital camera (Hamamatsu C4742-95). The objective used was HCXPL 20 X/0.40 CORR.

[2] = tested on: expanded mouse Schwann cells; test: Cell death in expanded mouse Schwann cells passaged three times (phase contrast, propidium iodide); format: cell-based; conditions: 100 μM vacor for 72 hours vs DMSO; Schwann cells passaged three times in proliferative medium
Procedure: Mouse SCs were passaged on PLL/laminin coated dishes in the presence of low serum (0.5% horse serum), 10 ng/ml Bneuregulin1 (BNRG1), and a low concentration cyclic adenosine monophosphate (CAMP) elevating signal, such as 2 μM forskolin or 100 μM dibutryl cAMP (Arthur-Farraj et al., 2011). Full protocol is described in (Mutschler et al., 2023).

## O=C(NCc1cccnc1)Nc1ccc([N+](=O)[O-])cc1 [vacor, Vacor]
Rat oligodendrocytes
  cell death judged by DAPI nuclear staining and SOX10 immunocytochemistry: died within hours; also recorded: substantial cell death
HEK293 cells
  Intracellular NAD+ levels: decrease
[1]
  neurotoxic effects in humans: severe neurotoxic effects
Human primary myoblasts
  cell death by propidium iodide (P.I.) staining: completely insensitive; also recorded: no cell death occurs
[2]
  cell death by propidium iodide (P.I.) staining and phase contrast: susceptible to cellular dysfunction and death; also recorded: substantial increase in P.I. staining
